pIC50: −log10 of the molar value.
What was measured:
Aurora A = biological target: T1, Aurora A (Homo sapiens, UniProt O14965); assay: Aurora A inhibitory action (33P-ATP kinase assay, Kemptide substrate); assay type: biochemical; details: 20 μM ATP, 30° C., 20 minutes
T1 construct: histidine tag (N); made in house; host or cells: Escherichia coli BL21-CodonPlus(DE3)-RIL
T1 sequence (O14965 1-403): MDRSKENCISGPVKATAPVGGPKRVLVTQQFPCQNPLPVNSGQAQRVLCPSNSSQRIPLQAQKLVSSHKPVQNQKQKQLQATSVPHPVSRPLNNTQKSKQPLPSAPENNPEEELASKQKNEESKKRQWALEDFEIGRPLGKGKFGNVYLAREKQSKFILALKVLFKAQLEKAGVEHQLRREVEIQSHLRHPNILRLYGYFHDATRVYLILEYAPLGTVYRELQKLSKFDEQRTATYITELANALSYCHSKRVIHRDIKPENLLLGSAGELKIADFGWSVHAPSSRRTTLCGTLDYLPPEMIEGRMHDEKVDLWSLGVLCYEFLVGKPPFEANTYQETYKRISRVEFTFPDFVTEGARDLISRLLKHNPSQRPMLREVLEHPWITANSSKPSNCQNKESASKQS
Method in brief: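 His-tagged Aurora A expressed in E. coli, Ni-purified; reaction in 50 mM Tris pH 7.4, 15 mM Mg acetate, 0.2 mM EDTA with 100 μM Kemptide, 20 μM ATP plus [γ-33P]ATP, 20 min at 30 °C. Phosphopeptide captured on P81 filters and counted by scintillation; DMSO control.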

[1] = test system: Human cervical cancer cells (HeLa S3); assay: Effect by combined use of drugs in cells (with paclitaxel), WST-8 method; assay type: cell-based; details: three days; for inhibition at 1 µM: HeLa S3, compound 1.0 μM alone; for inhibition at 0.3 µM: HeLa S3, compound 0.3 μM alone; for inhibition at 0.1 µM: HeLa S3, compound 0.1 μM alone; for inhibition at 0.03 µM: HeLa S3, compound 0.03 μM alone
Source text: Method for Judging the Effect by Combined Use of Drugs in Cells
Fetal calf serum (FCS) was purchased from Moregate Biotech, DMEM medium from Invitrogen Corp., paclitaxel (tradename: Taxol) from Sigma-Aldrich, Inc., and WST-8 from Kishida Chemical Co., Ltd.
(§1) Human cervical cancer cells (HeLa S3) were obtained from the American Type Culture Collection (ATCC).
(§2) c) Method of Judging the Effect
Cells were suspended in a DMEM medium containing 10% FCS, and the cell suspension was dispensed to two 96-well plastic plates at a rate of 750 cells/100 microliters per well. The plates were incubated overnight in 5% CO2-95% air at 37° C. A drug was subjected to graded dilution in dimethylsulfoxide and flurther diluted with DMSO or with a DMEM medium containing 10% FCS and also containing 2 nM paclitaxel. Then, the dilutions were each dispensed to one of the plates on which cells had been disseminated, at a rate of 100 microliters per well. The final concentration of paclitaxel at this stage was 1 nM. Also, the concentrations in the case of sole administration of the compound according to the invention were 0.03, 0.1, 0.3, 1 and 3 μM. The plates were incubated for further three days in 5% CO2-95% air at 37° C. Cell growth after incubation was measured by the WST-8 method (H. Tominaga, et al., Anal. Commun., 36, 47-50 (1999)). Here, the WST-8 method refers to a method in which 20 microliters of a WST-8 reagent solution is added to each well, incubation is conducted at 37° C. for 45 minutes, the plate is stirred, and the amount of formazan produced is measured by a colorimetric method to determine the inhibitory rate of the drug. The growth inhibitory effects of paclitaxel and of the compound according to the invention were determined, with the value obtained in sole treatment of DMSO being defined as 0%.

Aurora B = biological target: T2, Aurora B (Homo sapiens, UniProt Q96GD4); assay: Aurora B inhibitory action (33P-ATP kinase assay, Kemptide substrate); assay type: biochemical; details: 100 μM ATP, 30° C., 20 minutes
T2 construct: histidine tag (N); made in house; host or cells: Escherichia coli BL21-CodonPlus(DE3)-RIL
T2 sequence (Q96GD4 whole entry): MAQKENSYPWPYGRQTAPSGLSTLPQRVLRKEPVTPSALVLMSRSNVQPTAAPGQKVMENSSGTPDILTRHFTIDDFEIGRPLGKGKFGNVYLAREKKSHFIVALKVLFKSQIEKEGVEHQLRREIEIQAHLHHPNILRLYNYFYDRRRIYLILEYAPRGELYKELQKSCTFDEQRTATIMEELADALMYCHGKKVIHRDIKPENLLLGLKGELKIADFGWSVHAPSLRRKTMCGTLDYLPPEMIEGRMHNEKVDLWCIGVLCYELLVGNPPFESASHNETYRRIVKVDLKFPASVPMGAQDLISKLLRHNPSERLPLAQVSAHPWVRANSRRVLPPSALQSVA
Method in brief: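 His-tagged Aurora B expressed in E. coli, reacted with 100 μM Kemptide, 100 μM ATP plus [γ-33P]ATP in Tris pH 7.4, 15 mM Mg acetate, 0.2 mM EDTA, 30 °C, 20 min. Peptide captured on P81 filters for scintillation counting; compounds added from DMSO dilutions.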

[2] = test system: Human cervical cancer cells (HeLa S3); assay: Cell growth inhibitory effect, WST-8 method; assay type: cell-based; details: 72 h, HeLa S3, three days incubation
Source text: Method for Judging the Pharmaceutical Effect Using cells
Fetal calf serum (FCS) was purchased from Moregate Biotech, and DMEM medium was purchased from Invitrogen Corp. WST-8 was purchased from Kishida Chemical Co., Ltd.
as §1, §2
Cells were suspended in a DMEM medium containing 10% FCS, and the cell suspension was dispensed to a 96-well plastic plate at a rate of 750 cells/l 00 microliters per well. The plate was incubated overnight in 5% CO2-95% air at 37° C. A drug was subjected to graded dilution in dimethylsulfoxide and further diluted with a DMEM medium containing 10% FCS. Then, the dilution was dispensed to the plate on which cells had been disseminated, at a rate of 100 microliters per well. The plate was incubated for further three days in 5% CO2-95% air at 37° C. Cell growth after incubation was measured by the WST-8 method (H. Tominaga, et al., Anal. Commun., 36, 47-50 (1999)). Here, the WST-8 method refers to a method in which 20 microliters of a WST-8 reagent solution is added to each well, incubation is conducted at 37° C. for 45 minutes, the plate is stirred, and the amount of formazan produced is measured by a calorimetric method to determine the inhibitory rate of the drug. The concentration for 50% growth inhibition (EC50, IM) of the compound was determined.

[3] = HeLa S3, compound 1.0 μM + paclitaxel 1 nM
[4] = Homo sapiens, HeLa S3, 72 h, read-out: Cell growth inhibitory effect by sole administration of the compound of Example (%)
[5] = HeLa S3, compound 0.3 μM + paclitaxel 1 nM
[6] = HeLa S3, compound 0.1 μM + paclitaxel 1 nM
[7] = HeLa S3, compound 0.03 μM + paclitaxel 1 nM

Structure (SMILES) | pIC50 (Aurora A) | Cell growth inhibitory effect by combined administration of paclitaxel and the compound of Example (%) [1, 3] [%] | inhibition at 1 µM [1, 4] [%] | pIC50 (Aurora B) | pIC50 [2] | Cell growth inhibitory effect by combined administration of paclitaxel and the compound of Example (%) [1, 5] [%] | inhibition at 0.3 µM [1, 4] [%] | Cell growth inhibitory effect by combined administration of paclitaxel and the compound of Example (%) [1, 6] [%] | inhibition at 0.1 µM [1, 4] [%] | Cell growth inhibitory effect by combined administration of paclitaxel and the compound of Example (%) ([1]; HeLa S3, compound 3.0 μM + paclitaxel 1 nM) | inhibition at 3 µM ([1]; Homo sapiens, HeLa S3, 72 h, HeLa S3, compound 3.0 μM alone, read-out: Cell growth inhibitory effect by sole administration of the compound of Example (%)) [%] | Cell growth inhibitory effect by combined administration of paclitaxel and the compound of Example (%) [1, 7] [%] | inhibition at 0.03 µM [1, 4] [%]
O=C(c1cccc(Cl)c1F)N1C[C@@H]2C[C@H]1CN2Cc1cncc(Nc2cc[nH]n2)n1 [Example 46, 6-(((1S,4S)-5-(3-chloro-2-fluorobenzoyl)-2,5-diazabicyclo[2.2. 1]hept-2-yl)methyl)-N-1H-pyrazol-3-ylpyrazin-2-amine] | 8.21 | 75.0 | 8.5 | 5.85 | 5.39 | – | – | – | – | – | – | – | –
O=C(c1cccc(Cl)c1F)N1CCN(Cc2cncc(Nc3cc[nH]n3)n2)CC1 [Example 50, 6-((4-(3-chloro-2-fluorobenzoyl)piperazin-1-yl)methyl)-N-1H-pyrazol-3-ylpyrazin-2-amine] | 8.66 | 82.0 | 6 | 5.27 | 5.44 | – | – | – | – | – | – | – | –
Cc1cc(Nc2cncc(CN3CCN(C(=O)c4cccc(Cl)c4F)CC3)n2)n[nH]1 [Example 56, 6-((4-(3-chloro-2-fluorobenzoyl)piperazin-1-yl)methyl)-N-(5-methyl-1H-pyrazol-3-yl)pyrazin-2-amine] | 8.68 | – | – | 5.54 | 5.85 | 81.8 | 6.5 | – | – | – | – | – | –
O=C(c1cccc(Cl)c1F)N1CCN(Cc2cncc(Nc3nccs3)n2)CC1 [Example 58, 6-((4-(3-chloro-2-fluorobenzoyl)piperazin-1-yl)methyl)-N-thiazol-2-ylpyrazin-2-amine] | 8.32 | 81.4 | 0 | 5.00 | 5.52 | – | – | – | – | – | – | – | –
O=C(c1ccco1)N1CCN(Cc2cccc(Nc3ncc(Cl)s3)n2)CC1 [Example 62] | 7.92 | – | – | 6.42 | 6.07 | – | – | 68.0 | 2.9 | – | – | – | –
O=C(c1cccs1)N1CCN(Cc2cccc(Nc3ncc(Cl)s3)n2)CC1 [Example 66, 6-((4-(2-thienylcarbonyl)piperazin-1-yl)methyl)-N-(5-chlorothiazol-2-yl)pyridin-2-amine] | 8.47 | 60.9 | 7.2 | 6.60 | 5.54 | – | – | – | – | – | – | – | –
Cc1nc(C(=O)N2CCN(Cc3cccc(Nc4ncc(Cl)s4)n3)CC2)cs1 [Example 68, 6-((4-((2-methyl-thiazol-4-yl)carbonyl)piperazin-1-yl)methyl)-N-(5-chlorothiazol-2-yl)pyridin-2-amine] | 7.96 | – | – | 6.17 | 5.29 | – | – | – | – | 71.8 | 27.3 | – | –
N#Cc1cccc(C(=O)N2CCN(Cc3cccc(Nc4ncc(Cl)s4)n3)CC2)c1 [Example 71, 6-((4-(3-cyanobenzoyl)piperazin-1-yl)methyl)-N-(5-chlorothiazol-2-yl)pyridin-2-amine] | 8.52 | 60.7 | 13.2 | 6.43 | 5.52 | – | – | – | – | – | – | – | –
O=C(c1cccc(Cl)c1F)N1CCN(Cc2cccc(Nc3ncc(Cl)s3)n2)CC1 [Example 75, 6-((4-(3-chloro-2-fluorobenzoyl)piperazin-1-yl)methyl)-N-(5-chlorothiazol-2-yl)pyridin-2-amine] | 9.36 | – | – | 7.05 | 4.96 | 91.5 | 27.1 | – | – | – | – | – | –
O=C(Cc1ccc(Cl)cc1)N1CCN(Cc2cccc(Nc3ncc(Cl)s3)n2)CC1.O=C(O)C(F)(F)F [Example 77, 6-((4-((4-chlorophenyl)acetyl)piperazin-1-yl)methyl)-N-(5-chlorothiazol-2-yl)pyridin-2-amine trifluoroacetate] | 8.39 | – | – | 5.89 | 5.80 | 51.8 | 2.2 | – | – | – | – | – | –
CN(C)C(=O)c1cc(CN2CCN(C(=O)c3cccc(Cl)c3F)CC2)nc(Nc2nccs2)c1.O=C(O)C(F)(F)F [Example 86, 2-((4-(3-chloro-2-fluorobenzoyl)piperazin-1-yl)methyl)-N,N-dimethyl-6-(thiazol-2-ylamino)isonicotinamide trifluoroacetate] | 9.18 | – | – | 6.25 | 6.29 | – | – | – | – | – | – | 71.6 | 6.2
O=C(c1cccc(Cl)c1F)N1CCN(Cc2cc(CO)cc(Nc3nccs3)n2)CC1 [Example 89, (2-((4-(3-chloro-2-fluorobenzoyl)piperazin-1-yl)methyl)-6-(thiazol-2-ylamino)pyridin-4-yl)methanol] | 9.42 | – | – | 6.70 | 6.44 | – | – | 85.8 | 19.1 | – | – | – | –
COCc1cc(CN2CCN(C(=O)c3cccc(Cl)c3F)CC2)nc(Nc2nccs2)c1 [Example 95, 6-((4-(3-chloro-2-fluorobenzoyl)piperazin-1-yl)methyl)-4-(methoxymethyl)-N-thiazol-2-ylpyridin-2-amine] | 9.23 | – | – | 6.60 | 6.66 | – | – | – | – | – | – | 73.5 | 0
N#Cc1cc(CN2CCN(C(=O)c3cccc(Cl)c3F)CC2)nc(Nc2nccs2)c1 [Example 104, 2-((4-(3-chloro-2-fluorobenzoyl)piperazin-1-yl)methyl)-6-(thiazol-2-ylamino)isonicotinonitrile] | 8.96 | – | – | 5.85 | 6.00 | 81.6 | 6.3 | – | – | – | – | – | –

Reference: patent US20080027042A1, “Novel Aminopyridine Derivatives Having Aurora a Selective Inhibitory Action” (priority 2004, published 2008)
